# Measurements: PMC4767605 (Cancer chemotherapy and pharmacology, 2016)
# Where “and” joins values, the source holds several entries; their conditions need not be identical. Equal values may be shown once. Read-outs that look alike come from different tables or passages of the source.
# [1] = ASP9853 Lead-in (n=20), single agent
# [2] = Cohort 1 (n=6): ASP9853 25 mg + docetaxel 60 mg/m^2
# [3] = Cohort 2 (n=4): ASP9853 25 mg + docetaxel 75 mg/m^2
# [4] = Cohort 3 (n=3): ASP9853 37.5 mg + docetaxel 60 mg/m^2
compound,measurement,setting,value
"O.O.O=C(/C=C/c1ccc(Cl)cc1)N[C@@H](Cc1ccccn1)C(=O)NCC(=O)N1CCC(Oc2cc(C(F)(F)F)ncn2)CC1 [ASP9853, (2E)-3-(4-chlorophenyl)-N-[(1S)-2-oxo-2-{[2-oxo-2-(4-{[6-(trifluoromethyl)-4-pyrimidinyl]oxy}-1-piperidinyl)ethyl]amino}-1-(2-pyridinylmethyl)ethyl]acrylamide dehydrate]",Toxicity noted in single-patient Cohort 1 (did not meet DLT criteria),ASP9853 25 mg + docetaxel 60 mg/m^2,Grade 3 neutropenia
same,"Changes in liver function tests, vital signs, or electrocardiogram (ECGs)",ASP9853 + docetaxel,No clinically significant changes from baseline
same,Neutropenia during treatment (laboratory evaluation),ASP9853 + docetaxel,All patients experienced neutropenia
same,Patients with AEs that led to treatment discontinuation,"ASP9853 + docetaxel, all cohorts",Three
same,AE potentially related to ASP9853: Anemia; Grade 3/4,[1],0 n (%)
same,AE potentially related to ASP9853: Anemia; Grade All,[1],0 n (%)
same,AE potentially related to ASP9853: Asthenia; Grade 3/4,[1],0 n (%)
same,AE potentially related to ASP9853: Asthenia; Grade All,[1],1 (5) n (%)
same,AE potentially related to ASP9853: Constipation; Grade 3/4,[1],0 n (%)
same,AE potentially related to ASP9853: Constipation; Grade All,[1],0 n (%)
same,AE potentially related to ASP9853: Decreased appetite; Grade 3/4,[1],0 n (%)
same,AE potentially related to ASP9853: Decreased appetite; Grade All,[1],0 n (%)
same,AE potentially related to ASP9853: Diarrhea; Grade 3/4 (only Grade 3),[1],0 n (%)
same,AE potentially related to ASP9853: Diarrhea; Grade All,[1],0 n (%)
same,AE potentially related to ASP9853: Dizziness; Grade 3/4,[1],0 n (%)
same,AE potentially related to ASP9853: Dizziness; Grade All,[1],0 n (%)
same,AE potentially related to ASP9853: Fatigue; Grade 3/4 (only Grade 3),[1],0 n (%)
same,AE potentially related to ASP9853: Fatigue; Grade All,[1],0 n (%)
same,AE potentially related to ASP9853: Febrile neutropenia; Grade 3/4,[1],0 n (%)
same,AE potentially related to ASP9853: Febrile neutropenia; Grade All,[1],0 n (%)
same,AE potentially related to ASP9853: Nausea; Grade 3/4,[1],0 n (%)
same,AE potentially related to ASP9853: Nausea; Grade All,[1],1(5) n (%)
same,AE potentially related to ASP9853: Neutropenia; Grade 3/4,[1],0 n (%)
same,AE potentially related to ASP9853: Neutropenia; Grade All,[1],0 n (%)
same,AE potentially related to ASP9853: Neutrophil count decreased; Grade 3/4,[1],0 n (%)
same,AE potentially related to ASP9853: Neutrophil count decreased; Grade All,[1],0 n (%)
same,AE potentially related to ASP9853: Overall; Grade 3/4,[1],0 n (%)
same,AE potentially related to ASP9853: Overall; Grade All,[1],7 [35%] n (%) and 7 (35) n (%)
same,AE potentially related to ASP9853: Vomiting; Grade 3/4,[1],0 n (%)
same,AE potentially related to ASP9853: Vomiting; Grade All,[1],1 (5) n (%)
same,AE potentially related to ASP9853: White blood cell count decreased; Grade All,[1],0 n (%)
same,AE potentially related to ASP9853: Anemia; Grade 3/4,[2],0 n (%)
same,AE potentially related to ASP9853: Anemia; Grade All,[2],1 (17) n (%)
same,AE potentially related to ASP9853: Asthenia; Grade 3/4,[2],0 n (%)
same,AE potentially related to ASP9853: Asthenia; Grade All,[2],0 n (%)
same,AE potentially related to ASP9853: Constipation; Grade 3/4,[2],0 n (%)
same,AE potentially related to ASP9853: Constipation; Grade All,[2],1 (17) n (%)
same,AE potentially related to ASP9853: Decreased appetite; Grade 3/4,[2],0 n (%)
same,AE potentially related to ASP9853: Decreased appetite; Grade All,[2],0 n (%)
same,AE potentially related to ASP9853: Diarrhea; Grade 3/4 (only Grade 3),[2],0 n (%)
same,AE potentially related to ASP9853: Diarrhea; Grade All,[2],1 (17) n (%)
same,AE potentially related to ASP9853: Dizziness; Grade 3/4,[2],0 n (%)
same,AE potentially related to ASP9853: Dizziness; Grade All,[2],0 n (%)
same,AE potentially related to ASP9853: Fatigue; Grade 3/4 (only Grade 3),[2],0 n (%)
same,AE potentially related to ASP9853: Fatigue; Grade All,[2],2 (33) n (%)
same,AE potentially related to ASP9853: Febrile neutropenia; Grade 3/4,[2],0 n (%)
same,AE potentially related to ASP9853: Febrile neutropenia; Grade All,[2],0 n (%)
same,AE potentially related to ASP9853: Nausea; Grade 3/4,[2],0 n (%)
same,AE potentially related to ASP9853: Nausea; Grade All,[2],0 n (%)
same,AE potentially related to ASP9853: Neutropenia; Grade 3/4,[2],1 (17) n (%)
same,AE potentially related to ASP9853: Neutropenia; Grade All,[2],1 (17) n (%)
same,AE potentially related to ASP9853: Neutrophil count decreased; Grade 3/4,[2],0 n (%)
same,AE potentially related to ASP9853: Neutrophil count decreased; Grade All,[2],0 n (%)
same,AE potentially related to ASP9853: Overall; Grade 3/4,[2],2 (33) n (%)
same,AE potentially related to ASP9853: Overall; Grade All,[2],5 (83) n (%)
same,AE potentially related to ASP9853: Vomiting; Grade 3/4,[2],0 n (%)
same,AE potentially related to ASP9853: Vomiting; Grade All,[2],0 n (%)
same,AE potentially related to ASP9853: White blood cell count decreased; Grade All,[2],1 (17) n (%)
same,SAE considered related to ASP9853: diarrhea,Cohort 2,1 n
same,SAE considered related to ASP9853: febrile neutropenia,Cohort 2,2 n
same,AE potentially related to ASP9853: Anemia; Grade 3/4,[3],0 n (%)
same,AE potentially related to ASP9853: Anemia; Grade All,[3],1 (25) n (%)
same,AE potentially related to ASP9853: Asthenia; Grade 3/4,[3],0 n (%)
same,AE potentially related to ASP9853: Asthenia; Grade All,[3],2 (50) n (%)
same,AE potentially related to ASP9853: Constipation; Grade 3/4,[3],0 n (%)
same,AE potentially related to ASP9853: Constipation; Grade All,[3],0 n (%)
same,AE potentially related to ASP9853: Decreased appetite; Grade 3/4,[3],0 n (%)
same,AE potentially related to ASP9853: Decreased appetite; Grade All,[3],1 (25) n (%)
same,AE potentially related to ASP9853: Diarrhea; Grade 3/4 (only Grade 3),[3],1 (25) n (%)
same,AE potentially related to ASP9853: Diarrhea; Grade All,[3],2 (50) n (%)
same,AE potentially related to ASP9853: Dizziness; Grade 3/4,[3],0 n (%)
same,AE potentially related to ASP9853: Dizziness; Grade All,[3],0 n (%)
same,AE potentially related to ASP9853: Fatigue; Grade 3/4 (only Grade 3),[3],1 (25) n (%)
same,AE potentially related to ASP9853: Fatigue; Grade All,[3],3 (75) n (%)
same,AE potentially related to ASP9853: Febrile neutropenia; Grade 3/4,[3],2 (50) n (%)
same,AE potentially related to ASP9853: Febrile neutropenia; Grade All,[3],2 (50) n (%)
same,AE potentially related to ASP9853: Nausea; Grade 3/4,[3],0 n (%)
same,AE potentially related to ASP9853: Nausea; Grade All,[3],2 (50) n (%)
same,AE potentially related to ASP9853: Neutropenia; Grade 3/4,[3],0 n (%)
same,AE potentially related to ASP9853: Neutropenia; Grade All,[3],0 n (%)
same,AE potentially related to ASP9853: Neutrophil count decreased; Grade 3/4,[3],0 n (%)
same,AE potentially related to ASP9853: Neutrophil count decreased; Grade All,[3],0 n (%)
same,AE potentially related to ASP9853: Overall; Grade 3/4,[3],3 (75) n (%)
same,AE potentially related to ASP9853: Overall; Grade All,[3],3 (75) n (%)
same,AE potentially related to ASP9853: Vomiting; Grade 3/4,[3],0 n (%)
same,AE potentially related to ASP9853: Vomiting; Grade All,[3],3 (75) n (%)
same,AE potentially related to ASP9853: White blood cell count decreased; Grade All,[3],0 n (%)
same,AE potentially related to ASP9853: Anemia; Grade 3/4,[4],0 n (%)
same,AE potentially related to ASP9853: Anemia; Grade All,[4],0 n (%)
same,AE potentially related to ASP9853: Asthenia; Grade 3/4,[4],0 n (%)
same,AE potentially related to ASP9853: Asthenia; Grade All,[4],0 n (%)
same,AE potentially related to ASP9853: Constipation; Grade 3/4,[4],0 n (%)
same,AE potentially related to ASP9853: Constipation; Grade All,[4],1 (33) n (%)
same,AE potentially related to ASP9853: Decreased appetite; Grade 3/4,[4],0 n (%)
